Experimental data as given in patent publication US20130052213A1, “NOVEL IMMUNOMODULATORY PEPTIDE” (Novozymes A/S, priority 2011, published 2013).
No end group written: not given here.

Key:
[1] = tested on: IL-10; assay: IL-10 production from LPS-stimulated PBMC (cytometric bead array); format: cell-based; settings: human PBMCs stimulated with LPS 0.6 or 20 ng/ml; hBD2 100, 10 or 1 pg/ml; Dexamethason 3.5 ng/ml; Infliximab 1 μg/ml; 24 hours
Description: (§1) Peripheral blood was drawn from healthy volunteers (with approval from the relevant ethical committee in Denmark). Heparinized blood was diluted 1/1 v/v with RPMI and were subjected to Ficoll density centrifugation within 2 h of drawing. Plasma was collected from the top from individual donors and was kept on ice until it was used at 2% in the culture medium (autologous culture medium). Isolated PBMC were resuspended in autologous culture medium and seeded in 96-well culture plates with 255.000 cells per well in a total of 200 μl. PBMC from the same donor were stimulated with 100, 10 or 1 pg/ml of hBD2 (either full-length or cleaved) either alone or together with LPS at 0.6 ng/ml or 20 ng/ml (E. coli, O111:B4, Sigma L4391), as a control on down-regulation of inflammatory cytokines 3.5 ng/ml Dexamethason (Sigma D8893) and 1 μg/ml Infliximab (Centocur B. V., NCI039843LA) was included. The concentrations of these compounds were based on initial titration studies, where the highest possible concentration without effect of viability was used. The supernatants were collected after incubation at 37° C. for 24 hours, and stored at −80° C.° until cytokine measurement. Viability was measured by Alamar Blue (Biosource, DALL 1100) to be sure that anti-inflammatory effects were not due to toxicity.
TNF and IL-10 production in supernatants was measured by flow cytometry with a human inflammation cytometric bead array (CBA) according to manufacturer's instructions (BDBioSciences) on a FACSarray flow cytometer (BDBiosciences).
All experiments were performed at least twice on several donors, with representative results shown. The data presented are expressed as mean plus/minus standard deviation (SD). Statistical significance was determined by 2-way ANOVA with the variables being treatment (hBD2, dexamethazone, etc.) and stimulation (LPS) followed by Bonferroni post-test as reported in the table legends. Differences were considered significant for p<0.05.

[2] = tested on: rheumatoid arthritis; settings: WO 2010/007168; cited from earlier work
[3] = tested on: IL-10; settings: human PBMCs stimulated with LPS or another TLR ligand; cited from earlier work
[4] = tested on: TNF; settings: human PBMCs stimulated with LPS or another TLR ligand; cited from earlier work
[5] = tested on: TNF; assay: TNF production from LPS-stimulated PBMC (cytometric bead array); format: cell-based, human; settings: for TNF production (FIG. 2): human PBMCs stimulated with LPS 0.6 or 20 ng/ml, hBD2 100, 10 or 1 pg/ml, 24 hours
Description: as §1, with “toxicity. TNF and IL-10 production in supernatants was measured by flow cytometry with a human inflammation cytometric bead array (CBA) according to manufacturer's instructions (BDBioSciences) on a FACSarray flow cytometer (BDBiosciences). All experiments were performed at least twice on several donors, with representative results shown. The data presented are expressed as mean plus/minus standard deviation (SD). Statistical significance was determined by 2-way ANOVA with the variables being treatment (hBD2, dexamethazone, etc.) and stimulation (LPS) followed by Bonferroni post-test as reported in the table legends. Differences were considered significant for p<0.05.” for “toxicity.”

Substance | IL-10 production (FIG. 1) [1] | therapeutic potential in animal model of rheumatoid arthritis [2] | effect on IL-10, previously seen (WO 2010/007166) [3] | effect on TNF, previously seen (WO 2010/007166) [4] | TNF production (FIG. 2) [5] | anti-inflammatory activity in vitro compared with full-length hBD2 (FIGS. 1 and 2) ([5]; human PBMC stimulated with LPS, TNF and IL-10 read-outs) | potency relative to full length hBD2 (FIG. 2) ([5]; human PBMC, TNF production, at some concentrations)
full-length hBD2: full length human beta defensin 2, produced recombinantly in E. coli (GIGDPVTCLKSGAICHPVFCPRRYKQIGTCGLPGTKCCKKP; ends and bridges not checked; cysteine pairing not given here; listed as Homo sapiens) | significantly induced IL-10 production | has shown therapeutic potential | upregulation of IL-10 | downregulation of TNF | significantly reduced TNF production |  | 
Infliximab: anti-TNF antibody, control for anti-inflammatory effects | down-regulate IL-10 |  |  |  |  |  | 
PVTCLKSGAICHPVFCPRRYKQIGTCGLPGTKCCKKP [cleaved hBD2] | significantly induced IL-10 production |  |  |  | significantly reduced TNF production | same anti-inflammatory activity in vitro as full-length hBD2 | more potent than full length human beta-defensin 2
